According to paper PMC6706418, “Systemically Administered Plant Recombinant Holo-Intrinsic Factor Targets the Liver and is not Affected by Endogenous B12 levels” (Scientific Reports, 2019):

Target: T1, human gastric Intrinsic factor (IF; hrIF) (Homo sapiens, UniProt P27352)
T1 construct: gene CBLIF; recombinant apo-IF expressed in Arabidopsis thaliana (Xeragenx LLC); secreted glycoprotein ~50 kDa with plant glycosylation
Assay: radiometric chase assay with […]-B12
Type: binding
Conditions: competition against 57Co-B12; B12-desferrioxamine conjugate chelated to cold 91Zr (pH 7-7.5)

T1 sequence (P27352 19-417): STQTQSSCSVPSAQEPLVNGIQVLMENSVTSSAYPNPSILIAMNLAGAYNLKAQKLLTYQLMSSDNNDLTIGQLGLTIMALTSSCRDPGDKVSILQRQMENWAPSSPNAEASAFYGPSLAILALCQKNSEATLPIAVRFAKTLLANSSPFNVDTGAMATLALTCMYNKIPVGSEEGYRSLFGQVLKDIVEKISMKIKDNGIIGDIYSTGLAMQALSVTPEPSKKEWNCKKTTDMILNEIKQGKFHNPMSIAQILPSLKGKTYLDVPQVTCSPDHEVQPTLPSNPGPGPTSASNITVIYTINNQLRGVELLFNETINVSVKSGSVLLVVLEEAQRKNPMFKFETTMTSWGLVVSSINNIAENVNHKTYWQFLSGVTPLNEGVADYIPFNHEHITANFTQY

Kd: 1.57 nM
Substance: [^91Zr]-B12
